Starred links: 1 amine or outer side, 2 acyl side, 3 side chain; linkers in the order of their positions; H or OH if unused. Positions of bridges follow the written chain, without caps; N, C: chain ends. Non-standard residues stand in square brackets, D forms with d. Residues, ends and D or L forms follow the SMILES beside them. *: point of attachment. Ala(2-NH2-4-pyridyl) = Nc1cc(C[C@H](N)C(=O)O)ccn1; X2 = N=C(N)Nc1cccc(CC(N[*:1])C(=O)[*:2])c1; Bip = N[C@@H](Cc1ccc(-c2ccccc2)cc1)C(=O)O; Nle(6-Ph) = N[C@@H](CCCCc1ccccc1)C(=O)O; X3 = CCCCCCCCC[C@H](N[*:1])C(=O)[*:2]; Met(O2) = CS(=O)(=O)CC[C@H](N)C(=O)O; hhPhe = N[C@@H](CCCc1ccccc1)C(=O)O; hArg = N=C(N)NCCCC[C@H](N)C(=O)O; Cit = NC(=O)NCCC[C@H](N)C(=O)O; Ahp(2) = CCCCC[C@H](N)C(=O)O; X1 = COCCOCCOCCOCCC(=O)*
Target: His-tagged CD38 (Homo sapiens, UniProt P28907)
Assay: SPR assay (Biacore S200, Sensor Chip NTA, single-cycle kinetics) of SEQ ID NO.1 variants against His-tagged CD38
Assay type: binding
Conditions: for kon / koff: SPR Biacore S200, NTA chip, His-tagged CD38; for kon: read-out: Ka (association rate constant); for koff: read-out: Kd (dissociation rate constant); for Kd: SPR Biacore S200, His-tagged CD38, calculated from ka and kd
Protocol: SPR assay was performed using Biacore S200 (Cytiva: Former GE Healthcare).
After the equilibration of Series S Sensor Chip NTA (produced by Cytiva: Former GE Healthcare) with Running Buffer (10 mM HEPES pH7.4, 150 mM NaCl, 0.05% Tween 20), followed by injection of 350 mM EDTA at a flow rate of 10 L/min for 60 seconds and […] NiCl2 at a flow rate of 10 L/min for 60 seconds, then 3 mM EDTA at a flow rate of 10 L/min for 120 seconds, sequently, to wash the sensor chip.
EDC/NHS mixture was injected at a flow rate of […] for 7 minutes to thereby activate the functional groups on sensor chip. His-tagged CD38 in Running Buffer (10 mM HEPES pH7.4, 150 mM NaCl, 0.05% Tween 20) was injected immobilized to at a flow rate of […]. For 7 minutes to immobilize the CD38 on the substrate surfaces of the sensor chip. Then Ethanolamine was injected at a flow rate of […] for 7 minutes.
1.0 M Ethanolamine(aq.) was injected at a flow rate of 10 L/min for 420 seconds for capping. 10 mM peptides (which were synthesised described above) in DMSO were diluted to obtain 10 uM with Running Buffer, and prepared 100 nM, 50 nM, 25 nM, 10 nM, 5 nM of each peptide's solutions (Peptide Samples).
Using these Peptide Samples, kinetics of peptides against His-tagged CD38 was measured. The method adopted for sample measurement was a single-cycle kinetics method. The analysis was conducted using the evaluation software 1.1 provided with Biacore S200. A DMSO correction curve obtained by solvent correction measurements was applied for the analysis. Kinetics fitting was done on the difference data obtained by subtracting the baseline data from sample measurement data.
KD values were calculated based on the association rate constant (ka) and dissociation rate constant (kd).

| kon | koff | Kd | SMILES |
| --- | --- | --- | --- |
| 730000 M⁻¹ s⁻¹ | 0.0077 s⁻¹ | 10.6 nM | CCCCC[C@@H]1NC(=O)[C@H](Cc2ccc(-c3ccccc3)cc2)NC(=O)[C@H](CC(C)C)NC(=O)[C@H](C(C)C)NC(=O)[C@H](CCC(=O)O)NC(=O)[C@H](CC(=O)O)NC(=O)[C@H](Cc2c[nH]cn2)NC(=O)[C@H](Cc2ccc(O)cc2)NC(=O)[C@H](CCCCC)NC(=O)[C@H](CCCNC(=N)N)NC(=O)[C@@H](C)NC(=O)CSC[C@@H](C(N)=O)NC(=O)[C@H](CC(=O)O)NC1=O [compound 20] ({CH2CO}-[dA]R[Ahp(2)]YHDEVL[Bip][Ahp(2)]DC-NH2; thioether N-13) |
| 1.9e+06 M⁻¹ s⁻¹ | 0.05 s⁻¹ | – | CCCCC[C@@H]1NC(=O)[C@H](CCCNC(=N)N)NC(=O)[C@H](C)NC(=O)CSC[C@@H](C(N)=O)NC(=O)[C@H](CC(=O)O)NC(=O)[C@H](CCCc2ccccc2)NC(=O)[C@H](Cc2ccc(-c3ccccc3)cc2)NC(=O)[C@H](CC(C)C)NC(=O)[C@H](C(C)C)NC(=O)[C@H](CCC(=O)O)NC(=O)[C@H](CC(=O)O)NC(=O)[C@H](Cc2c[nH]cn2)NC(=O)[C@H](Cc2ccc(O)cc2)NC1=O [compound 26] ({CH2CO}-AR[Ahp(2)]YHDEVL[Bip][hhPhe]DC-NH2; thioether N-13) |
| 120000 M⁻¹ s⁻¹ | 0.0012 s⁻¹ | 10.4 nM | CCCCC[C@@H]1NC(=O)[C@H](Cc2ccnc(N)c2)NC(=O)[C@H](C)NC(=O)CSC[C@@H](C(N)=O)NC(=O)[C@H](CC(=O)O)NC(=O)[C@H](CCCCc2ccccc2)NC(=O)[C@H](Cc2ccc(-c3ccccc3)cc2)NC(=O)[C@H](CC(C)C)NC(=O)[C@H](C(C)C)NC(=O)[C@H](CCC(=O)O)NC(=O)[C@H](CC(=O)O)NC(=O)[C@H](Cc2c[nH]cn2)NC(=O)[C@H](Cc2ccc(O)cc2)NC1=O [compound 34] ({CH2CO}-A[Ala(2-NH2-4-pyridyl)][Ahp(2)]YHDEVL[Bip][Nle(6-Ph)]DC-NH2; thioether N-13) |
| 380000 M⁻¹ s⁻¹ | 0.00078 s⁻¹ | – | CCCCC[C@@H]1NC(=O)C(Cc2cccc(NC(=N)N)c2)NC(=O)[C@H](C)NC(=O)CSC[C@@H](C(N)=O)NC(=O)[C@H](CC(=O)O)NC(=O)[C@H](CCCCC)NC(=O)[C@H](Cc2ccc(-c3ccccc3)cc2)NC(=O)[C@H](CC(C)C)NC(=O)[C@H](C(C)C)NC(=O)[C@H](CCC(=O)O)NC(=O)[C@H](CC(=O)O)NC(=O)[C@H](Cc2c[nH]cn2)NC(=O)[C@H](Cc2ccc(O)cc2)NC1=O (some centres unmarked) [compound 29] ({CH2CO}-A[X2][Ahp(2)]YHDEVL[Bip][Ahp(2)]DC-NH2; thioether N-13; C-terminus assumed) |
| 630000 M⁻¹ s⁻¹ | 0.00087 s⁻¹ | – | CCCCC[C@@H]1NC(=O)[C@H](CCCNC(=N)N)NC(=O)[C@H](C)NC(=O)CSC[C@@H](C(N)=O)NC(=O)[C@H](CC(=O)O)NC(=O)[C@H](CCCCc2ccccc2)NC(=O)[C@H](Cc2ccc(-c3ccccc3)cc2)NC(=O)[C@H](CC(C)C)NC(=O)[C@H](C(C)C)NC(=O)[C@H](CCC(=O)O)NC(=O)[C@H](CC(=O)O)NC(=O)[C@H](Cc2c[nH]cn2)NC(=O)[C@H](Cc2ccc(O)cc2)NC1=O [compound 25] ({CH2CO}-AR[Ahp(2)]YHDEVL[Bip][Nle(6-Ph)]DC-NH2; thioether N-13) |

Continued, molecule first:

| SMILES | kon | koff | Kd |
| --- | --- | --- | --- |
| CCCCC[C@@H]1NC(=O)[C@H](CCCNC(=N)N)NC(=O)[C@H](C)NC(=O)CSC[C@@H](C(N)=O)NC(=O)[C@H](CC(=O)O)NC(=O)[C@H](CCCCC)NC(=O)[C@H](Cc2ccc(-c3ccccc3)cc2)NC(=O)[C@H](CC(C)C)NC(=O)[C@H](C(C)C)NC(=O)[C@H](CC(N)=O)NC(=O)[C@H](CC(=O)O)NC(=O)[C@H](Cc2c[nH]cn2)NC(=O)[C@H](Cc2ccc(O)cc2)NC1=O [compound 5] ({CH2CO}-AR[Ahp(2)]YHDNVL[Bip][Ahp(2)]DC-NH2; thioether N-13) | 766000 M⁻¹ s⁻¹ | 0.00161 s⁻¹ | – |
| CCCCC[C@@H]1NC(=O)[C@H](CCCNC(=N)N)NC(=O)[C@H](C)NC(=O)CSC[C@@H](C(N)=O)NC(=O)[C@H](CC(=O)O)NC(=O)[C@H](CCCCC)NC(=O)[C@H](Cc2ccc(-c3ccccc3)cc2)NC(=O)[C@H](CCS(C)(=O)=O)NC(=O)[C@H](C(C)C)NC(=O)[C@H](CCC(=O)O)NC(=O)[C@H](CC(=O)O)NC(=O)[C@H](Cc2c[nH]cn2)NC(=O)[C@H](Cc2ccc(O)cc2)NC1=O [compound 14] ({CH2CO}-AR[Ahp(2)]YHDEV[Met(O2)][Bip][Ahp(2)]DC-NH2; thioether N-13 (inferred); N-terminus and C-terminus assumed) | 570000 M⁻¹ s⁻¹ | 0.022 s⁻¹ | – |
| CCCCC[C@@H]1NC(=O)[C@H](Cc2ccc(-c3ccccc3)cc2)NC(=O)[C@H](CC(C)C)NC(=O)[C@H](C(C)C)NC(=O)[C@H](CCC(=O)O)NC(=O)[C@H](CC(=O)O)NC(=O)[C@H](Cc2c[nH]cn2)NC(=O)[C@H](Cc2ccc(O)cc2)NC(=O)[C@H](CCCCNC(=O)CCOCCOCCOCCOC)NC(=O)[C@H](CCCNC(=N)N)NC(=O)[C@H](C)NC(=O)CSC[C@@H](C(N)=O)NC(=O)[C@H](CC(=O)O)NC1=O [compound 19] ({CH2CO}-ARK(X1)YHDEVL[Bip][Ahp(2)]DC-NH2; thioether N-13) | 160000 M⁻¹ s⁻¹ | 0.0012 s⁻¹ | – |
| CCCCC[C@@H]1NC(=O)[C@H](Cc2ccc(-c3ccccc3)cc2)NC(=O)[C@H](CC(C)C)NC(=O)[C@H](C(C)C)NC(=O)[C@H](CCC(=O)O)NC(=O)[C@H](CC(=O)O)NC(=O)[C@H](Cc2c[nH]cn2)NC(=O)[C@H](Cc2ccc(O)cc2)NC(=O)[C@H](CCCCC)NC(=O)[C@H](CCCNC(=N)N)NC(=O)[C@H](C)NC(=O)CSC[C@@H](C(N)=O)NC(=O)[C@H](C)NC1=O [compound 27] ({CH2CO}-AR[Ahp(2)]YHDEVL[Bip][Ahp(2)]AC-NH2; thioether N-13 (inferred); N-terminus and C-terminus assumed) | 560000 M⁻¹ s⁻¹ | 0.0028 s⁻¹ | – |
| CCCCC[C@@H]1NC(=O)[C@H](Cc2ccc(-c3ccccc3)cc2)NC(=O)[C@H](CC(C)C)NC(=O)[C@H](C(C)C)NC(=O)[C@H](CCC(=O)O)NC(=O)[C@H](CC(=O)O)NC(=O)[C@H](Cc2c[nH]cn2)NC(=O)[C@H](Cc2ccc(O)cc2)NC(=O)[C@H](CCCCC)NC(=O)[C@H](CCCNC(=N)N)NC(=O)[C@H](CCCCNC(=O)CCOCCOCCOCCOC)NC(=O)CSC[C@@H](C(N)=O)NC(=O)[C@H](CC(=O)O)NC1=O [compound 17] ({CH2CO}-K(X1)R[Ahp(2)]YHDEVL[Bip][Ahp(2)]DC-NH2; thioether N-13) | 210000 M⁻¹ s⁻¹ | 0.00091 s⁻¹ | 4.37 nM |
| CCCCC[C@@H]1NC(=O)[C@H](CCCNC(N)=O)NC(=O)[C@H](C)NC(=O)CSC[C@@H](C(N)=O)NC(=O)[C@H](CC(=O)O)NC(=O)[C@H](CCCCc2ccccc2)NC(=O)[C@H](Cc2ccc(-c3ccccc3)cc2)NC(=O)[C@H](CC(C)C)NC(=O)[C@H](C(C)C)NC(=O)[C@H](CCC(=O)O)NC(=O)[C@H](CC(=O)O)NC(=O)[C@H](Cc2c[nH]cn2)NC(=O)[C@H](Cc2ccc(O)cc2)NC1=O [compound 28] ({CH2CO}-A[Cit][Ahp(2)]YHDEVL[Bip][Nle(6-Ph)]DC-NH2; thioether N-13) | 680000 M⁻¹ s⁻¹ | 0.0016 s⁻¹ | 2.4 nM |
| CCCCC[C@@H]1NC(=O)[C@H](CCCNC(=N)N)NC(=O)[C@H](C)NC(=O)CSC[C@@H](C(N)=O)NC(=O)[C@H](CC(=O)O)NC(=O)[C@H](CCCCC)NC(=O)[C@H](Cc2ccc(-c3ccccc3)cc2)NC(=O)[C@H](CC(C)C)NC(=O)[C@H](C(C)C)NC(=O)[C@H](CCCCNC(=N)N)NC(=O)[C@H](CC(=O)O)NC(=O)[C@H](Cc2c[nH]cn2)NC(=O)[C@H](Cc2ccc(O)cc2)NC1=O [compound 12] ({CH2CO}-AR[Ahp(2)]YHD[hArg]VL[Bip][Ahp(2)]DC-NH2; thioether N-13 (inferred); N-terminus and C-terminus assumed) | 660000 M⁻¹ s⁻¹ | 0.0015 s⁻¹ | – |
| CCCCC[C@@H]1NC(=O)[C@H](CCCNC(=N)N)NC(=O)[C@H](C)NC(=O)CSC[C@@H](C(N)=O)NC(=O)[C@H](CC(=O)O)NC(=O)[C@H](CCCCC)NC(=O)[C@H](Cc2ccc(-c3ccccc3)cc2)NC(=O)[C@H](CC(C)C)NC(=O)[C@H](C(C)C)NC(=O)[C@H](CCC(=O)O)NC(=O)[C@H](CC(=O)O)NC(=O)[C@H](Cc2c[nH]cn2)NC(=O)[C@H](C)NC1=O [compound 21] ({CH2CO}-AR[Ahp(2)]AHDEVL[Bip][Ahp(2)]DC-NH2; thioether N-13 (inferred); N-terminus and C-terminus assumed) | 310000 M⁻¹ s⁻¹ | 0.016 s⁻¹ | – |
| CCCCCCCCC[C@@H]1NC(=O)[C@H](Cc2ccc(-c3ccccc3)cc2)NC(=O)[C@H](CC(C)C)NC(=O)[C@H](C(C)C)NC(=O)[C@H](CCC(=O)O)NC(=O)[C@H](CC(=O)O)NC(=O)[C@H](Cc2c[nH]cn2)NC(=O)[C@H](Cc2ccc(O)cc2)NC(=O)[C@H](CCCCC)NC(=O)[C@H](CCCNC(=N)N)NC(=O)[C@H](C)NC(=O)CSC[C@@H](C(N)=O)NC(=O)[C@H](CC(=O)O)NC1=O [compound 24] ({CH2CO}-AR[Ahp(2)]YHDEVL[Bip][X3]DC-NH2; thioether N-13 (inferred); N-terminus and C-terminus assumed) | 370000 M⁻¹ s⁻¹ | 0.0013 s⁻¹ | – |

— US20250263440A1, “CD38-BINDING AGENTS AND USES THEREOF” (PeptiDream Inc., priority 2019, published 2025)
